Reference: paper PMC10411625, “Rationally designed stapled peptides allosterically inhibit PTBP1–RNA-binding” (Chemical Science, 2023)
Positions of bridges follow the written chain, without caps; N, C: chain ends. Non-standard residues stand in square brackets, D forms with d. Residues, ends and D or L forms follow the SMILES beside them. R8 = C=CCCCCCC[C@@](C)(N)C(=O)O; S5 = C=CCCC[C@](C)(N)C(=O)O

Assays:
[1] = target: T1, PTBP1 RRM12 (Homo sapiens, UniProt P26599); assay: Competitive fluorescence polarization assay between RRM12 and RNA-2; assay type: binding; conditions: Fig. 2C, 5 nM FAM-RNA-2, protein at 50-70 % probe binding, FP buffer pH 8.0, 20 °C, 30 min, n.b. given for inactive peptides; for Ki: read-out: Ki, competitive FP assay between RRM12 and RNA-2
T1 construct: (P57-V265); MBP (from pMAL vector); His tag; made in house; host or cells: E. coli BL21 DE3 RIL
T1 sequence (P26599 57-265): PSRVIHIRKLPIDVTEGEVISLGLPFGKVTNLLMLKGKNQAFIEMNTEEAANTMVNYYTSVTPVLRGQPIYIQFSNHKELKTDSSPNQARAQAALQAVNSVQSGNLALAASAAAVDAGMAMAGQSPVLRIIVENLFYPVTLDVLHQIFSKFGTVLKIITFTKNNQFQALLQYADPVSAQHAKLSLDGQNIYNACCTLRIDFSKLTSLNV
Text: (§1) For the initial design we used the i, i + 4 strategy where two (S)-pentenyl alanines (S5) were introduced in positions with three other amino acids in between. We picked three different amino acid pairs to replace with the S5 amino acids based on their orientation as observed in the NMR structures (P-2, P-3 and P-4, Fig. 2B and C).[25] To prevent the staple from disturbing the interaction between the ligand and the protein we chose positions facing away from the binding site forming the pairs Ala145/Ala149, Gln148/Gln152, and Ala149/Ala153. The three peptides were synthesized on Rink amide resin and the linear peptides were treated with a Grubbs catalyst to connect the S5 residues. To avoid a mixture of E/Z-diastereomers we reduced the alkene in the linker of the staple using a solution phase hydrogenation protocol.[43] The linear equivalent P-1 was synthesized for comparison but had to be extended on the C-terminus with an arginine residue to improve its solubility. The C-terminus is away from the binding surface and this modification was therefore not expected to have an impact on the binding affinity. The peptides were tested in a competitive fluorescence polarization assay using the RRM12 construct and RNA-2 (Fig. 2C and S2 ^†). […] As the staple is expected to stabilize the α-helical conformation we used circular dichroism (CD) spectroscopy to evaluate the helicity of the peptides. […] It is possible that although P-4 was more helical than P-3, the replacement of Gln148 with the hydrophobic linker disturbed the interaction since the side chain amide potentially interacts with the RRM1 surface. […]
size exclusion chromatography (Superdex 75 16/60 or 26/60) with SEC buffer (50 mM Tris, 200 mM NaCl). Protein homogeneity was assessed by the size exclusion chromatogram and purity was checked by SDS-PAGE analysis to be >= 90%.
The gene encoding for SRSF1-RRM12 (1-195) was subcloned into pOPIN-His expression vector and expressed in E. coli BL21 (DE3). A pre-culture of transformed bacteria was made followed by expression in LB-Medium (100 µg/ml Ampicillin, 1 mM IPTG, 18 °C, 160 rpm overnight) after growing the culture at 37 °C, 160 rpm to an OD600 of 0.6. The harvested cells (5000 x g, 4 °C, 15 min) were resuspended in Buffer ASRSF1 (50 mM Na2HPO4 pH 8.0, 300 mM KCl, 50 mM L-Arg, 50 mM L-Gly, 1.5 mM MgCl2) supplemented with 1 mM PMSF followed by lysis through sonification. The protein was purified using a HisTrap HP 5 ml column (GE-Healthcare) using a gradient of Buffer BSRSF1 (50 mM Na2HPO4 pH 8.0, 300 mM KCl, 50 mM L-Arg, 50 mM L-Gly, 1.5 mM MgCl2, 500 mM Imidazole) followed by dialysis into wash buffer (50 mM Na2HPO4 pH 8.0, 300 mM KCl, 50 mM L-Arg, 50 mM L-Gly, 1.5 mM MgCl2, 40 mM Imidazole) and a second run of the affinity column. The protein containing fractions were afterwards dialyzed into wash buffer with tag-cleavage using His-tagged 3C protease. The cleaved construct was subsequently used for a third affinity column run collecting the unbound fraction which was dialyzed into storage buffer (20 mM Na2HPO4 pH 8.0, 150 mM KCl, 50 mM L-Arg, 50 mM L-Gly, 1.5 mM MgCl2, 0.2 mM EDTA, 1 mM TCEP).
Purification of hnRNP A2/B1
The MBP-tagged hnRNP A2/B1 construct (1-251) was expressed from a pOPIN-His-MBP vector in E. coli BL21 (DE3) RIPL cells. A pre-culture in TB (0.01% lactose, 2mM MgSO4, 100 µg/ml ampicillin, 50 µg/ml chloramphenicol) was used to inoculate the expression culture with a starting OD600 of 0.05 at 37 °C. Expression was autoinduced at 37 °C for 4 h followed by expression over night at 25 °C. Harvested cells (5000 x g, 15 min, 4 °C) were resuspended in Buffer AhnRNPA2/B1 (50 mM HEPES pH 8.0, 300 mM NACl, 20 mM Imidazole, 1 mM TCEP) supplemented with 1 mM PMSF) and lysed with a microfluidizer.
Immobilized metal affinity chromatography was performed using a HisTrap FF crude 5 ml column. The loaded protein was washed with wash buffer (50 mM HEPES pH 8.0, 300 mM NaCl, 30 mM Imidazole, […]

[2] = Helicity by circular dichroism spectroscopy; assay type: physicochemical; conditions: 50 µM peptide, 20 mM sodium phosphate pH 8.0, 10 mM NaF, 20 °C, triplicates, JASCO multivariate secondary structure analysis
Text: as §1
performed in FP bufferPTBP1. […]
serially diluted in the same buffer. […]
a final concentration of 10 nM probe. […]
the settings mentioned previously.
Fluorescence polarization assay with SRSF1
Fluorescence polarization was
Fluorescence polarization assay with hnRNPA2/B1
For the competitive assay 10 nM
Microscale thermophoresis […]
afterwards serially diluted into FP buffer.
The data was evaluated at […]
experiments were performed in duplicates.
Circular Dichroism Spectroscopy […]

## CC(=O)N[C@@H](CC(N)=O)C(=O)N[C@@H](CCC(N)=O)C(=O)N[C@@]1(C)CCCC=CCCCC2(CCCC=CCCC[C@](C)(C(=O)N[C@H](C(=O)N[C@@H](CC(N)=O)C(N)=O)C(C)C)NC(=O)[C@H](CCC(N)=O)NC(=O)[C@H](CC(C)C)NC(=O)[C@H](C)NC2=O)NC(=O)[C@H](CCC(N)=O)NC(=O)[C@H](C)NC(=O)[C@H](CCNC(=N)N)NC1=O (stereo partly drawn) [Peptide P-8]
[1]
  Ki, competitive FP assay between RRM12 and RNA-2: n.b.

## CC(=O)N[C@@H](CC(N)=O)C(=O)N[C@@H](CCC(N)=O)C(=O)N[C@@H](C)C(=O)N[C@@H](CCCNC(=N)N)C(=O)N[C@@H](C)C(=O)N[C@@H](CCC(N)=O)C(=O)N[C@@]1(C)CCCCCCCC[C@@](C)(C(=O)N[C@H](C(=O)N[C@@H](CC(N)=O)C(N)=O)C(C)C)NC(=O)[C@H](CCC(N)=O)NC(=O)[C@H](CC(C)C)NC(=O)[C@H](C)NC1=O [Peptide P-3]
[2]
  Helicity by CD spectroscopy: 57.8%
[1]
  Ki: 156 µM

## CC(=O)N[C@@H](CC(N)=O)C(=O)N[C@@H](CCC(N)=O)C(=O)N[C@@H](C)C(=O)N[C@@H](CCCNC(=N)N)C(=O)N[C@@H](C)C(=O)N[C@@]1(C)CCCCCCCC[C@@](C)(C(=O)N[C@@H](C)C(=O)N[C@H](C(=O)N[C@@H](CC(N)=O)C(N)=O)C(C)C)NC(=O)[C@H](CC(C)C)NC(=O)[C@H](C)NC(=O)[C@H](C)NC1=O [Peptide P-4]
[2]
  Helicity by CD spectroscopy: 77.3%
[1]
  Ki: 275 µM

## CC(=O)N[C@@H](CC(N)=O)C(=O)N[C@@H](CCC(N)=O)C(=O)N[C@@]1(C)CCCC=CCCCC2(CCCC=CCCC[C@](C)(C(=O)N[C@H](C(=O)N[C@@H](CC(=O)O)C(N)=O)C(C)C)NC(=O)[C@H](CCC(N)=O)NC(=O)[C@H](CC(C)C)NC(=O)[C@H](C)NC2=O)NC(=O)[C@H](CCC(N)=O)NC(=O)[C@H](C)NC(=O)[C@H](CCCNC(=N)N)NC1=O (stereo partly drawn) [Peptide P-7]
[1]
  Ki, competitive FP assay between RRM12 and RNA-2: n.b.

## CC(=O)N[C@@H](CC(N)=O)C(=O)N[C@@H](CCC(N)=O)C(=O)N[C@@]1(C)CCCC=CCCCCCC[C@](C)(C(=O)N[C@@H](C)C(=O)N[C@H](C(=O)N[C@@H](CC(N)=O)C(N)=O)C(C)C)NC(=O)[C@H](CC(C)C)NC(=O)[C@H](C)NC(=O)[C@H](C)NC(=O)[C@H](CCC(N)=O)NC(=O)[C@H](C)NC(=O)[C@H](CCCNC(=N)N)NC1=O [Peptide P-5] (Ac-NQ[S5]RAQAAL[R8]AVN-NH2; staple 3-10)
[1]
  Ki: 24.9 µM

## CC(=O)N[C@@H](CC(N)=O)C(=O)N[C@@H](CCC(N)=O)C(=O)N[C@@]1(C)CCCC=CCCCC2(CCCC=CCCC[C@](C)(C(=O)N[C@H](C(=O)N[C@@H](CC(N)=O)C(N)=O)C(C)C)NC(=O)[C@H](CCC(N)=O)NC(=O)[C@H](CC(N)=O)NC(=O)[C@H](C)NC2=O)NC(=O)[C@H](CCC(N)=O)NC(=O)[C@H](C)NC(=O)[C@H](CCCNC(=N)N)NC1=O (stereo partly drawn) [Peptide P-9]
[1]
  Ki, competitive FP assay between RRM12 and RNA-2: n.b.

## CC(=O)N[C@H](C(=O)N[C@@H](CCC(N)=O)C(=O)N[C@@]1(C)CCCC=CCCCC2(CCCC=CCCC[C@](C)(C(=O)N[C@H](C(=O)N[C@@H](CC(N)=O)C(N)=O)C(C)C)NC(=O)[C@H](CCC(N)=O)NC(=O)[C@H](CC(C)C)NC(=O)[C@H](C)NC2=O)NC(=O)[C@H](CCC(N)=O)NC(=O)[C@H](C)NC(=O)[C@H](CCCNC(=N)N)NC1=O)C(C)C (stereo partly drawn) [Peptide P-10]
[1]
  Ki: 22.4 ± 4.5 µM
